Data on 1 substance can be found in patent publication US20210130420A1, “RECOMBINANT BINDING PROTEINS TARGETING HER2 AND SERUM ALBUMIN, AND THEIR USES” (Molecular Partners AG, priority 2016, published 2021).

Assay [1] relates to BT474 cells. Nature of the assay: Induction of apoptosis, Caspase 3/7 activation. The assay is classed as cell-based, human. As to conditions: FIG. 7.
Method: Briefly, 10000 BT474 cells were seeded per well in a 96 well plate in100 μl complete medium and incubated for 24 hours. […] Caspase Glo reagent was added according to the manufactures protocol for 1 hour. Caspase 3/7 activation was monitored by measuring luciferase activity. Alternatively induction of apoptosis was determined using the Cell Death Detection [sequence] system (Roche, Switzerland). The assay was performed according to the manufactures protocol. Cell number and incubations times were similar to the Caspase Glo readout. Data were analyzed using the GraphPad prism software, plotting concentration on the x-axis against OD405/490 nm or relative light units (RLU; measured on a Tecan M-1000 reader) on the y-axis. Data were fitted using a non-linear regression fit (log(agonist) vs. response—Variable slope (four parameters)).
For assay [2], the system named is GXA3039. Nature of the assay: Gastric cancer patient derived tumor xenograft mouse model GXA3039. The assay is classed as in vivo. As to conditions: GXA3039, FIG. 4D; Protein #21 60 mg/kg, antibodies 10 mg/kg, every three days for 6 times. The protocol: Further, Protein #21 was expressed and purified as described in Example 1. […] All groups were dosed every three days for 6 times. Briefly, tumor fragments were obtained from xenografts in serial passage in nude mice. After removal from donor mice, tumors were cut into fragments (4-5 mm diameter) for subcutaneous implantation. Mice were randomized into groups when tumors reached a volume of approximately 100-120 mm^3. The day of randomization and treatment initiation is designated as day 0 in each experiment. Tumor growth was monitored by two-dimensional measurement with a caliper on the day of randomization and then twice weekly. Relative volumes of individual tumors (individual RTVs) for Day x were calculated by dividing the individual tumor volume on Day x (Tx) by the individual volume of the same tumor on Day 0 (TO) multiplied by 100%. Tumor inhibition for a particular day (T/C in %) was calculated from the ratio of the median RTV values of test versus control groups multiplied by 100%.

Assay [3] deals with AKT. Nature of the assay: Phospho-proteome mass spectrometry of BT474 cells. It is filed as cell-based, human. As to conditions: 100 nM, 18 hours. From the text:
(§1) Protein #21 was expressed and purified as described in Example 1. […] Cells were then subjected to a phospho-proteome mass-spectrometry analysis as described by Britton, D., et al. (Britton, D., Zen, Y., Quaglia, A., Selzer, S., Mitra, VI., Lössner, C., Jung, S., Bohm, G., Schmid, P., Prefot, P., Hoehle, C., Koncarevic, S., Gee, J., Nicholson, R., Ward, M., Castellano, L., Stebbing, J., Zucht, H. D., Sarker, D., Heaton, N., and Pike, I., 2014. PLOS One 9 (3), e90948).

Assay [4] relates to RAF. The assay can be described thus: Phospho-proteome mass spectrometry of BT474 cells. It is filed as cell-based, human. As to conditions: 100 nM, 18 hours.
Source text: as §1

Assay [5] has as its system RPS6KB1/S6 Kinase. Nature of the assay: Phospho-proteome mass spectrometry of BT474 cells. It is filed as cell-based, human. As to conditions: 100 nM, 18 hours.
Source text: as §1

Assay [6] has as its system mTOR. The assay can be described thus: Phospho-proteome mass spectrometry of BT474 cells. The assay is classed as cell-based, human. As to conditions: 100 nM, 18 hours.
Source text: as §1

Assay [7] has as its system AKT. Nature of the assay: Phospho-site specific ELISA, BT474 cells. As to conditions: 100 nM, 18 hours. It is filed as cell-based, human.
Assay [8] concerns HER3. The assay can be described thus: Phosphorylation state ELISA, BT474 cells. The assay is classed as cell-based, human. As to conditions: 100 nM, 18 hours.
The subject of assay [9] is HER1/EGFR. Nature of the assay: Phosphorylation state ELISA, BT474 cells. It is filed as cell-based, human. As to conditions: 100 nM, 18 hours.
The test system of assay [10] is Foxo3a protein. Nature of the assay: Cellular levels of Foxo3a protein in BT474 cells. As to conditions: compared to an exposure to PBS only. The assay is classed as cell-based, human.
Source text: as §1
(§2) It is known to the practitioner in the art, that Akt1 phosphorylates Foxo3a, resulting in the degradation of Foxo3a and promotion of cell survival. Inhibition of Act phosphorylation leads to stabilization of Foxo3a and thus increase in Foxo3a levels. At increased levels Foxo3a can translocate to the nucleus and induce apoptosis.

Assay [11] concerns Foxo3a protein. The assay can be described thus: Cellular levels of Foxo3a protein in NCI-N87 cells. The assay is classed as cell-based. As to conditions: compared to an exposure to PBS only.
Source text: as §1, §2

Regarding Pertuzumab [reference compound], the “induction of apoptosis in BT474 cells” value in assay [1] is on record as “did not induce apoptosis”. Besides, the “inhibition of tumor growth, second experiment” value in [2] is listed as “significantly less efficacious”. For the same substance, in [3], the “AKT S124 phosphorylation” value is reported as 1.04 fold change to PBS and the “AKT S129 phosphorylation” value is 1.16 fold change to PBS. For the same substance, in assay [4], the “RAF S642 phosphorylation” value was 1.2 fold change to PBS and the “RAF T631/T638/T640/T641/S642 phosphorylation” value is 1.01 fold change to PBS. In addition, in assay [5], the “RPS6KB1/S6Kinase S441/T444/S447 phosphorylation” value is on record as 1.02 fold change to PBS and the “RPS6KB1/S6Kinase T444/S447 phosphorylation” value is on record as 1.04 fold change to PBS. Besides, in assay [6], the “mTOR S2448/S2454 phosphorylation” value was 1.09 fold change to PBS. For the same substance, the “AKT S473 phosphorylation” value in assay [7] is on record as 0.73 fold change to PBS. The “HER3 Pan-Phospho-Tyrosine” value in assay [8] was 0.78 fold change to PBS. Further, the “HER1/EGFR Pan-Phospho-Tyrosine” value in assay [9] is recorded as 0.68 fold change to PBS. Moreover, the “increase of cellular levels of Foxo3a protein” value in assay [10] was found to be 1.21 fold. For the same substance, in [11], the “increase of cellular levels of Foxo3a protein” value was determined as 1.25 fold.
